Assays:
Format in all cases: cell-based, human
[1] = system: GSK-3β; assay: Western blotting, GSK-3β, JeKo-1 cells; conditions: 0.5 μM, entire cell, 24 hours
Procedure: (§1) Specifically, first, JeKo-1 cells were cultured for 0 (control), 12, 24, and 48 hours in the presence of 0.5 μM of 3EZ,20Ac-ingenol. In addition, Panc-1 cells were cultured for 0 (control), 12, 24, and 48 hours in the presence of 3 μM of 3EZ,20Ac-ingenol.
(§2) Subsequently, abundances of GSK-3β and p-GSK-3β in the respective cells were analyzed by Western blotting using an anti-GSK-3β antibody (Cell Signaling Technology) and an anti-p-GSK-3β (Ser^9) antibody (Cell Signaling Technology). Furthermore, as a loading control, actin protein was detected using an anti-actin antibody (Sigma).

[2] = system: TKG0210 cells; assay: Cell Death Detection ELISA, TKG0210; conditions: 0.5 μM, 72 hours
Procedure: The induction of apoptosis by 3EZ,20Ac-ingenol treatment was examined by detecting histone-binding DNA fragmentation in the cytoplasm using a Cell Death Detection ELISA kit (Roche Applied Science).
Specifically, BALL-1 cells, TKG0210 cells, and TKG0377 cells were inserted into tubes at 5×10^4 cells/well/200 μL, and incubated for 6, 12, 24, 48, and 72 hours in the presence of 3EZ,20Ac-ingenol at a final concentration of 0.5 μM. Subsequently, the respective cells were lysed in a lysis buffer. Subsequently, the supernatant of cell debris of the respective cells was collected and transferred to an ELISA plate, and an absorbance at a wavelength of 405 nm was measured to measure the induction of apoptosis.

[3] = system: p21 protein; assay: Western blotting, p21 protein, Panc-1 cells; conditions: 3 μM
Procedure: (§3) Specifically, JeKo-1 cells were cultured for 0 (control), 12, 24 and 48 hours in the presence of 0.5 μM of 3EZ,20Ac-ingenol. In addition, Panc-1 cells were cultured for 0 (control), 12, 24, and 48 hours in the presence of 3 μM of 3EZ,20Ac-ingenol.
(§4) Subsequently, phosphorylation of H2AX in the respective cells was detected using an anti-phosphorylated-H2AX antibody (Millipore). In addition, p21 protein was detected using an anti-p21 antibody (Cell Signaling Technology). Furthermore, as a loading control, actin protein was detected using an anti-actin antibody (Sigma).

[4] = system: p-GSK-3β (Ser^9); assay: Western blotting, p-GSK-3β (Ser9), JeKo-1 cells; conditions: 0.5 μM, entire cell
Procedure: as §1, §2

[5] = system: cyclin D1; assay: Western blotting, cyclin D1, JeKo-1 cells; conditions: 0.5 μM; for abundance of cyclin D1: cytoplasm fraction
Procedure: as §1
(§5) Subsequently, abundances of cyclin D1 in entire cell fractions, nuclear fractions, and cytoplasm fractions of the respective cells were analyzed by Western blotting.

[6] = system: phosphorylated H2AX (γH2AX); assay: Western blotting, phosphorylated H2AX, Panc-1 cells; conditions: 3 μM, 12, 24, 48 hours
Procedure: as §3, §4

[7] = system: GSK-3β; assay: Western blotting, GSK-3β, Panc-1 cells; conditions: 3 μM, entire cell, 12 hours
Procedure: as §1, §2

[8] = system: PTEN protein; assay: Western blotting, PTEN protein, Panc-1 cells; conditions: 3 μM
Procedure: as §1
Subsequently, abundances of PTEN protein in entire cell fractions, nuclear fractions, and cytoplasm fractions of the respective cells were analyzed by Western blotting using an anti-PTEN antibody (Santa Cruz). Furthermore, as a loading control, actin protein was detected using an anti-actin antibody (Sigma).

[9] = system: ATR protein; assay: Western blotting, ATR protein, Panc-1 cells; conditions: 3 μM
Procedure: (§6) Specifically, JeKo-1 cells were cultured for 0 (control), 12, 24, and 48 hours in the presence of 0.5 μM of 3EZ,20Ac-ingenol. In addition, Panc-1 cells were cultured for 0 (control), 12, 24, and 48 hours in the presence of 3 μM of 3EZ,20Ac-ingenol.
(§7) Subsequently, ATR protein, p53 protein, and phosphorylated p53 (hereinafter also referred to as “p-p53”) protein in the respective cells were respectively detected using an anti-ATR antibody (Cell Signaling Technology), an anti-p53 antibody (Santa Cruz), and an anti-p-p53 antibody (Cell Signaling Technology). Furthermore, as a loading control, actin protein was detected using an anti-actin antibody (Sigma).

[10] = system: phosphorylated Akt (Ser^473); assay: Western blotting, p-Akt (Ser473), TKG0210 cells; conditions: 0.5 μM
Procedure: The effect of 3EZ,20Ac-ingenol treatment on a PI3K/Akt signaling pathway was examined. Specifically, BALL-1 cells, TKG0210 cells, and TKG0377 cells were cultured for 48 hours in the presence of 3EZ,20Ac-ingenol at a final concentration of 0.5 μM, and by Western blotting using an anti-p-Akt (Ser^473) antibody (Cell Signaling Technology), phosphorylation of the 473th serine residue of an Akt protein in respective fractions of the entire cell, a nucleus, and a cytoplasm was analyzed. In addition, cells cultured in the absence of 3EZ,20Ac-ingenol were used as controls.
BALL-1 cells, TKG0210 cells, and TKG0377 cells were cultured for 24 and 48 hours in the presence of 3EZ,20Ac-ingenol at a final concentration of 0.5 μM, and abundances of p-Akt in the nuclear fraction and the cytoplasm fraction were analyzed by Western blotting. In addition, respective cells cultured in the absence of 3FZ,20Ac-ingenol were used as controls.

[11] = system: phosphorylated p53 (p-p53) protein; assay: Western blotting, phosphorylated p53, JeKo-1 cells; conditions: 0.5 μM, entire cells
Procedure: as §6, §7

[12] = system: cyclin D1; assay: Western blotting, cyclin D1, Panc-1 cells; conditions: 3 μM
Procedure: as §1, §5

CCCCC/C=C\C=C\C(=O)O[C@H]1C(C)=C[C@]23C(=O)[C@@H](C=C(COC(C)=O)[C@@H](O)[C@]12O)[C@H]1[C@@H](C[C@H]3C)C1(C)C [3EZ,20Ac-ingenol, 3-O-(2′E,4′Z-decadienoyl)-20-O-acetylingenol]
GSK-3β (an active type) [1]: an increase in GSK-3β was observed | amount of fragmented DNA (apoptosis) [2]: almost no fragmented DNA was detected | expression of p21 protein ([3]; 12 hours after treatment): induction of a high expression level of p21 protein was observed | expression of p21 protein ([3]; 48 hours after treatment): a rapid decrease in p21 protein was recognized | p-GSK-3β (an inactive type) [4]: a decrease in p-GSK-3β (an inactive type) was observed | abundance of cyclin D1 ([5]; 12 to 48 hours): an increase in abundance of cyclin D1 was recognized | abundance of cyclin D1 ([5]; thereafter): a decrease was recognized thereafter | expression level of cyclin D1 ([5]; entire cell fraction, 12 to 48 hours): a decrease in expression level of cyclin D1 was observed | expression level of cyclin D1 ([5]; nuclear fraction, 12 to 48 hours): a slight decrease in expression level of cyclin D1 was observed | phosphorylation of H2AX [6]: phosphorylation of H2AX was not detected | GSK-3β (an active type) [7]: an increase in GSK-3β was observed | abundance of PTEN protein ([8]; cytoplasm fraction, 12 hours to 24 hours): an increase in abundance of PTEN protein in the cytoplasm fraction was observed | abundance of PTEN protein ([8]; cytoplasm fraction, 48 hours): a decrease in abundance of PTEN protein was observed | abundance of PTEN protein ([8]; entire cell fraction, 12 hours until 48 hours): an abundance of PTEN protein increased | abundance of PTEN protein ([8]; nuclear fraction, 12 hours to 24 hours): an increase in abundance of PTEN protein in the nuclear fraction was observed | expression level of ATR protein ([9]; 12 hours, further increase 24 hours after treatment): an increase in expression level of ATR protein was recognized | expression level of ATR protein ([9]; 48 hours after treatment): a decrease was recognized | abundance of p-Akt ([10]; 24 and 48 hours, cytoplasm fraction and nuclear fraction): no decrease in abundance of p-Akt was observed | abundance of p-Akt ([10]; 48 hours, cytoplasm fraction): remained almost unchanged | abundance of p-Akt ([10]; 48 hours, entire cell): a decrease in abundance of phosphorylated Akt | abundance of p-Akt ([10]; 48 hours, nuclear fraction): remained almost unchanged | phosphorylation of p53 [11]: phosphorylation of p53 was not confirmed | abundance of cyclin D1 ([12]; cytoplasm fraction, 12 to 48 hours): an abundance of cyclin D1 decreased | expression level of cyclin D1 ([12]; entire cell fraction, 12 to 24 hours): temporarily increased | expression level of cyclin D1 ([12]; entire cell fraction, after 24 hours): then decreased thereafter | expression level of cyclin D1 ([12]; nuclear fraction, 12 hours): temporarily increased | expression level of cyclin D1 ([12]; nuclear fraction, after 24 hours): decreased after 24 hours
